Tests used:
[1] = tested on: neutralizing anti-reovirus antibody (NARA); assay: Neutralising anti-reovirus antibody (NARA) response in serum; assay type: in vivo, mouse; details: CP used in combination with RV
Protocol: FIG. 2 is a graph showing the neutralizing anti-reovirus antibody (NARA) response after no treatment (control) or treatment with reovirus, cisplatin or the combination of reovirus and cisplatin.
For in vivo evaluation, subcutaneous B16.F10 tumors in C57Bl/6 mice or K1735 tumors in C3H mice were treated with intratumoral (i.t.) RV and intraperitoneal (i.p.) CP either alone or in combination. Tumor volume was estimated thrice weekly. Tumors and organs were harvested post-treatment for viral retrieval and histology; serum samples were tested for cytokine production and induction of neutralising anti-reovirus antibody (NARA). […] C57Bl/6 (FIGS. 1A and 1C) and C3H (FIGS. 1B and 1D) mice bearing subcutaneous B16.F10 and K1735 tumors respectively were treated on days 1 and 4 with either reovirus alone i.t. (squares), cisplatin alone i.p. (triangles), or reovirus and cisplatin in combination (circles). Control treated mice (diamonds) received PBS. Tumors were measured on the days indicated and tumor volume expressed as tumor volume relative to volume at commencement of treatment (FIGS. 1A and 1B). Mice were euthanized when tumors exceeded 15 mm in any one dimension. Survival is expressed as Kaplan-Myer plots (FIGS. 1C and 1D). […] In contrast live virus was detected in only 50% of tumors from combination treated mice but in the liver of 4/6 mice.

[2] = tested on: subcutaneous B16.F10 tumors in C57Bl/6 mice or K1735 tumors in C3H mice; assay: In vivo tumor growth and survival, i.t. RV and i.p. CP alone or in combination; parameters: species or system mouse; details: treated days 1 and 4, tumor model not stated
Protocol: C57Bl/6 (FIGS. 1A and 1C) and C3H (FIGS. 1B and 1D) mice bearing subcutaneous B16.F10 and K1735 tumors, respectively, were treated on days 1 and 4 with either reovirus alone via intratumoral (i.t.) injection (squares), cisplatin alone via intraperitoneal (i.p.) administration (triangles), or reovirus and cisplatin in combination (circles). Control treated mice (diamonds) received PBS. Tumors were measured on the days indicated and tumor volume expressed as tumor volume relative to volume at commencement of treatment (FIGS. 1A and 1B). Mice were euthanized when tumors exceeded 15 mm in any one dimension. Survival is expressed as Kaplan-Myer plots (FIGS. 1C and 1D).
(§1) For in vivo evaluation, subcutaneous B16.F10 tumors in C57Bl/6 mice or K1735 tumors in C3H mice were treated with intratumoral (i.t.) RV and intraperitoneal (i.p.) CP either alone or in combination. Tumor volume was estimated thrice weekly. […] Tumors were measured on the days indicated and tumor volume expressed as tumor volume relative to volume at commencement of treatment (FIGS. 1A and 1B). […] Survival is expressed as Kaplan-Myer plots (FIGS. 1C and 1D). […] In contrast live virus was detected in only 50% of tumors from combination treated mice but in the liver of 4/6 mice.

[3] = tested on: proinflammatory cytokines (IL-1I, IL-3, IL-6, IL-12, IL-17, MIP-1I, RANTES); assay: Pro-inflammatory cytokine production in serum; assay type: in vivo, mouse; details: CP used in combination with RV
Protocol: FIGS. 3A, 3B, 3C, 3D, 3E, 3F, and 3G are graphs showing pro-inflammatory cytokine response is abrogated by cisplatin. The response of IL-1I (FIG. 3A), IL-3 (FIG. 3B), IL-6 (FIG. 3C), IL-12 (FIG. 3D), IL-17 (FIG. 3E), MIP-1I (FIG. 3F) and RANTES (FIG. 3G) were measured after no treatment (control) or treatment with reovirus, cisplatin or the combination of reovirus and cisplatin.
as §1, with “weekly. Tumors and organs were harvested post-treatment for viral retrieval and histology; serum samples were tested for cytokine production and induction of neutralising anti-reovirus antibody (NARA).” for “weekly.”

N.N.[Cl][Pt][Cl] [CP, cisplatin]
neutralizing anti-reovirus antibody (NARA) response to RV [1]: did not affect | Mean relative tumor volumes ±SD ([2]; day 12, volume relative to commencement of treatment): 9.87±2.80 | Median survival ([2]; euthanized when tumors exceeded 15 mm): 8 days | production of proinflammatory cytokines to RV [3]: marked attenuation
